According to US9718826B2, “Imidazopyrazinone derivatives” (Merck Patent GmbH, priority 2013, dated 2017):
pIC50: −log10 of the molar value.

Assays:
[1] = molecular target: T1, GST-tagged Tankyrase-1 (1023-1327 aa) (Homo sapiens, UniProt O95271); test: Tankyrase 1 autoparsylation assay (HTRF); format: biochemical; settings: read-out: IC50 TNKS1 enzyme assay
T1 construct: GST-tagged Tankyrase-1 (1023-1327 aa)
Protocol: (§1) Biochemical activity testing of Tankyrase 1 and 2: Autoparsylation assay
(§2) The autoparsylation assay is run in two steps: the enzymatic reaction in which GST-tagged Tankyrase-1, resp Tankyrase-2 transferred biotinylated ADP-ribose to itself from biotinylated NAD as co-substrate and the detection reaction where a time resolved FRET between cryptate labelled anti-GST bound to the GST tag of the enzyme and Xlent® labelled-streptavidin bound the biotin-parsylation residue is analysed. The autoparsylation activity was detectable directly via the increase in HTRF signal.
(§3) The autoparsylation assay is performed as 384-well HTRF® (Cisbio, Codolet, France) assay format in Greiner low volume nb 384-well microtiter plates and is used for high throughput screen. 250 nM GST-tagged Tankyrase-1 (1023-1327 aa), respectively about 250 nM GST-tagged Tankyrase-2 (873-1166 aa) and 5 μM bio-NAD (Biolog, Life science Inst., Bremen, Germany) as co-substrate are incubated in a total volume of 5 μl (50 mM HEPES, 4 mM Mg-chloride, 0.05% Pluronic F-68, 1.4 mM DTT, 0.5% DMSO, pH 7.7) in the absence or presence of the test compound (10 dilution concentrations) for 90 min at 30° C. The reaction is stopped by the addition of 1 μl 50 mM EDTA solution. 2 μl of the detection solution (1.6 μM SA-Xlent® (Cisbio, Codolet, France), 7.4 nM Anti-GST-K® (Eu-labelled anti-GST, Cisbio, Codolet, France) in 50 mM HEPES, 800 mM KF, 0.1% BSA, 20 mM EDTA, 0.1% CHAPS, pH 7.0) are added. After 1 h incubation at room temperature the HTRF is measured with an Envision multimode reader (Perkin Elmer LAS Germany GmbH) at excitation wavelength 340 nm (laser mode) and emission wavelengths 615 nm and 665 nm. The ratio of the emission signals is determined. The full value used is the inhibitor-free reaction. The pharmacological zero value used is XAV-939 (Tocris) in a final concentration of 5 μM. The inhibitory values (IC50) are determined using either the program Symyx Assay Explorer® or Condosseo® from GeneData.

[2] = molecular target: T2, GST-tagged Tankyrase-2 (873-1166 aa) (Homo sapiens, UniProt Q9H2K2); test: Tankyrase 2 autoparsylation assay (HTRF); format: biochemical; settings: read-out: IC50 TNKS2 enzyme assay
T2 construct: GST-tagged Tankyrase-2 (873-1166 aa)
Protocol: as §1, §2, §3

[3] = molecular target: T3, GST-tagged Tnks-1 (1023-1327 aa) (Homo sapiens, UniProt O95271); test: TNKS1 activity ELISA (autoparsylation assay); format: biochemical
T3 construct: GST-tagged Tnks-1 (1023-1327 aa, prepared in-house); made in house
Protocol: (§4) Description of the TNKS1 and TNKS2 ELISA Assay
(§5) Biochemical Activity Testing of TNKS 1 and 2: Activity ELISA (Autoparsylation Assay)
(§6) For analysis of autoparsylation activity of TNKS 1 and 2 an activity ELISA is performed: In the first step GST tagged TNKS is captured on a Glutathione coated plate. Then the activity assay with biotinylated NAD is performed in the absence/presence of the compounds. During the enzymatic reaction GST tagged TNKS transfers biotinylated ADP-ribose to itself from biotinylated NAD as co-substrate. For the detection streptavidin-HRP conjugate is added that binds to the biotinylated TNKS and is thereby captured to the plates. The amount of biotinylated resp. autoparsylated TNKS is detected with a luminescence substrate for HRP. The level of the luminescence signal correlates directly with the amount of autoparsylated TNKS and therefore with activity of TNKS.
(§7) The activity ELISA is performed in 384 well Glutathione coated microtiter plates (Express capture Glutathione coated plate, Biocat, Heidelberg, Germany). The plates are pre-equilibrated with PBS. Then the plates are incubated with 50 μl 20 ng/well GST-tagged Tnks-1 (1023-1327 aa, prepared in-house), respectively GST-tagged Tnks-2 (873-1166 aa, prepared in-house) in assay buffer (50 mM HEPES, 4 mM Mg-chloride, 0.05% Pluronic F-68, 2 mM DTT, pH 7.7) overnight at 4° C. The plates are washed 3 times with PBS-Tween-20. The wells are blocked by incubation at room temperature for 20 minutes with 50 μl blocking buffer (PBS, 0.05% Tween-20, 0.5% BSA). Afterwards the plates are washed 3 times with PBS-Tween-20. The enzymatic reaction is performed in 50 μl reaction solution (50 mM HEPES, 4 mM Mg-chloride, 0.05% Pluronic F-68, 1.4 mM DTT, 0.5% DMSO, pH 7.7) with 10 μM bio-NAD (Biolog, Life science Inst., Bremen, Germany) as co-substrate in the absence or presence of the test compound (10 dilution concentrations) for 1 hour at 30° C. The reaction is stopped by 3 times washing with PBS-Tween-20. For the detection 50 μl of 20 ng/μl Streptavidin, HRP conjugate (MoBiTec, Göttingen, Germany) in PBS/0.05% Tween-20/0.01% BSA are added and the plates are incubated for 30 minutes at room temperature. After three times washing with PBS-Tween-20 50 μl of SuperSignal ELISA Femto Maximum sensitivity substrate solution (ThermoFisherScientific (Pierce), Bonn, Germany) are added. Following a 1 minute incubation at room temperature luminescence signals are measured with an Envision multimode reader (Perkin Elmer LAS Germany GmbH) at 700 nm. The full value used is the inhibitor-free reaction. The pharmacological zero value used is XAV-939 (Tocris) in a final concentration of 5 μM. The inhibitory values (IC50) are determined using either the program Symyx Assay Explorer® or Condosseo® from GeneData.

[4] = molecular target: T4, GST-tagged Tnks-2 (873-1166 aa) (Homo sapiens, UniProt Q9H2K2); test: TNKS2 activity ELISA (autoparsylation assay); format: biochemical
T4 construct: GST-tagged Tnks-2 (873-1166 aa, prepared in-house); made in house
Protocol: as §4, §5, §6, §7

[5] = molecular target: T5, His-tagged Parp-1 (Homo sapiens, UniProt P09874); test: PARP-1 autoparsylation assay (HTRF); format: biochemical; settings: PARP-1 autoparsylation HTRF
T5 construct: purchased Enzo Life Sciences GmbH, Lörrach, Germany
Text: Description of the PARP1 Assay
Biochemical Activity Testing of PARP-1: Autoparsylation Assay
as §2, with “His-tagged Parp-1 transfers” for “GST-tagged Tankyrase-1, resp Tankyrase-2 transferred”, “ADP-ribose/ADP-ribose” for “ADP-ribose”, “NAD/NAD” for “NAD”, “anti-His antibody” for “anti-GST”, “His” for “GST”, “is” for “was”
The autoparsylation assay is performed as 384-well HTRF® (Cisbio, Codolet, France) assay format in Greiner low volume nb 384-well microtiter plates. 35 nM His-tagged Parp-1 (human, recombinant, Enzo Life Sciences GmbH, Lörrach, Germany) and a mixture of 125 nM bio-NAD (Biolog, Life science Inst., Bremen, Germany) and 800 nM NAD as co-substrate are incubated in a total volume of 6 μl (100 mM Tris/HCl, 4 mM Mg-chloride, 0.01% IGEPAL® CA630, 1 mM DTT, 0.5% DMSO, pH 8, 13 ng/μl activated DNA (BPS Bioscience, San Diego, US)) in the absence or presence of the test compound (10 dilution concentrations) for 150 min at 23° C. The reaction is stopped by the addition of 4 μl of the Stop/detection solution (70 nM SA-Xlent® (Cisbio, Codolet, France), 2.5 nM Anti-His-K® (Eu-labelled anti-His, Cisbio, Codolet, France) in 50 mM HEPES, 400 mM KF, 0.1% BSA, 20 mM EDTA, pH 7.0). After 1 h incubation at room temperature the HTRF is measured with an Envision multimode reader (Perkin Elmer LAS Germany GmbH) at excitation wavelength 340 nm (laser mode) and emission wavelengths 615 nm and 665 nm. The ratio of the emission signals is determined. The full value used is the inhibitor-free reaction. The pharmacological zero value used is Olaparib (LClabs, Woburn, US) in a final concentration of 1 μM. The inhibitory values (IC50) are determined using either the program Symyx Assay Explorer® or Condosseo® from GeneData.

[6] = system: Tankyrases; test: Cellular inhibition of Tankyrase, Axin2 level in DLD1 cells (Luminex); format: cell-based; settings: Axin2 increase, 24 hours, read-out: EC50 [M] TNKS cellular assay
Protocol: Measurement of Cellular Inhibition of Tankyrase
Since Tankyrases have been described to modulate cellular level of Axin2 (Huang et al., 2009; Nature) the increase of Axin2 level is used as read-out for determination of cellular inhibition of Tankyrases in a Luminex based assay.
Cells of the colon carcinoma cell line DLD1 are plated in 96 well plates with 1.5×10^4 cells per well. Next day, cells are treated with a serial dilution of test compound in seven steps as triplicates with a final DMSO concentration of 0.3%. After 24 hours, cells are lysed in lysis buffer (20 mM Tris/HCl pH 8.0, 150 mM NaCl, 1% NP40, 10% Glycerol) and lysates are cleared by centrifugation through a 96 well filter plate (0.65 μm). Axin2 protein is isolated from cell lysates by incubation with a monoclonal anti-Axin2 antibody (R&D Systems #MAB6078) that is bound to fluorescent carboxybeads. Then, bound Axin2 is specifically detected with a polyclonal anti-Axin2 antibody (Cell Signaling #2151) and an appropriate PE-fluorescent secondary antibody. The amount of isolated Axin2 protein is determined in a Luminex^200 machine (Luminex Corporation) according to the manufacturer's instruction by counting 100 events per well. Inhibition of Tankyrase by test compounds results in higher levels of Axin2 which directly correlates with an increase of detectable fluorescence. As controls cells are treated with solvent alone (neutral control) and with a Tankyrase reference inhibitor IWR-2 (3E-06 M) which refers as control for maximum increase of Axin2. For analysis, the obtained data are normalized against the untreated solvent control and fitted for determination of the EC50 values using the Assay Explorer software (Accelrys).

[7] = system: DLD-1-cancer cells; settings: Huang et al., 2009; cited from earlier work
[8] = system: β-catenin; settings: Huang et al., 2009; cited from earlier work

T2 sequence (Q9H2K2 873-1166): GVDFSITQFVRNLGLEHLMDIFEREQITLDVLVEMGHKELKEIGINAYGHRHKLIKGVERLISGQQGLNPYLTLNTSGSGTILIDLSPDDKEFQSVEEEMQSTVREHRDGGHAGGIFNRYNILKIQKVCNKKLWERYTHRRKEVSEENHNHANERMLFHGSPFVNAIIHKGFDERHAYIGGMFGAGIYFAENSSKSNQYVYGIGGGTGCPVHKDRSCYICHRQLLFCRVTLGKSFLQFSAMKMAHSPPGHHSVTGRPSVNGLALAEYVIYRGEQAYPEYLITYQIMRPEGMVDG
T4 sequence (Q9H2K2 873-1166): as above
T3 sequence (O95271 1023-1327): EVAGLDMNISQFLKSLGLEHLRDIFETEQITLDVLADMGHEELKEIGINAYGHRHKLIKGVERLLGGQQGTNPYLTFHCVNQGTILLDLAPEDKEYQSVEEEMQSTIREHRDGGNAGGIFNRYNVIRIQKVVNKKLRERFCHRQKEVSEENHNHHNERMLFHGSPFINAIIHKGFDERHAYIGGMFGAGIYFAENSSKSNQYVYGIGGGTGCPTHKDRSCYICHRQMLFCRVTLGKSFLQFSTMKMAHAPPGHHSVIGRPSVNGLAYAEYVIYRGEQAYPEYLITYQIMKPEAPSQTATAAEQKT
T1 sequence (O95271 1023-1327): as above
T5 sequence (P09874 whole entry): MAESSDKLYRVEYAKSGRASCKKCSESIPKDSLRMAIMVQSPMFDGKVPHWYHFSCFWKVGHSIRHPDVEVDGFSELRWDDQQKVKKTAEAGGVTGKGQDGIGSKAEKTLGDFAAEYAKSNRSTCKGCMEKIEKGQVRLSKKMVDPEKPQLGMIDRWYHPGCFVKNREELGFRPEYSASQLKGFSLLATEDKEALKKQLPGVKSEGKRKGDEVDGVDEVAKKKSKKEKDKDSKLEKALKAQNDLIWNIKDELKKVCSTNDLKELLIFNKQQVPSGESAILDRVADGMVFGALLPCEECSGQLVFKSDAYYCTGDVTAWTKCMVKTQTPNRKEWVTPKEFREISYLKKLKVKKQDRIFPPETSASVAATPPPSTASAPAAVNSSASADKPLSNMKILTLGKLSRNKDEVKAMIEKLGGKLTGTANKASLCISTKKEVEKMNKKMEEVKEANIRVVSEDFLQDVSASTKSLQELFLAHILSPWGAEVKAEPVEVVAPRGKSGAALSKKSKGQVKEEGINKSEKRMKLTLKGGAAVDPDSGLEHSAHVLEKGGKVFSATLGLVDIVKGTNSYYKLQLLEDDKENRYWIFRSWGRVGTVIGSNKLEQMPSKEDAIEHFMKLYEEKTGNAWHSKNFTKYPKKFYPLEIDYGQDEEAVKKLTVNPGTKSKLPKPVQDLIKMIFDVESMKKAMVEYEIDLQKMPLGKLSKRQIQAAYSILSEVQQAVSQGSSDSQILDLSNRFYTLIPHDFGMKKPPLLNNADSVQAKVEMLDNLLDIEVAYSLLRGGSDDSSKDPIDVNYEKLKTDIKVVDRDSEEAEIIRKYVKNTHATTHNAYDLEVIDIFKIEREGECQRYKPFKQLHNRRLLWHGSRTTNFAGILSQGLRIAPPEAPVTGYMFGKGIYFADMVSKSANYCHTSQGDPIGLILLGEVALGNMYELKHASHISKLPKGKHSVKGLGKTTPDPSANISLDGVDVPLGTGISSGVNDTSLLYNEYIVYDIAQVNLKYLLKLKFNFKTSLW

Compound	pIC50 [1]	pIC50 [2]	pIC50 [3]	pIC50 [4]	IC50 [5]	EC50 [6]	growth of DLD-1-cancer cells [7]	Wnt-stimulated accumulation of β-catenin [8]
Cc1ccc(-c2cn3cncc3c(=O)[nH]2)cc1 [Compound A1, 6-p-tolyl-7H-imidazo[1,5-a]pyrazin-8-one]	5.52 to 6.52	5.52 to 6.52	5.52 to 6.52	5.52 to 6.52	3 to 50 µM	–	–	–
Cn1cc(-c2ccc(-c3cn4cncc4c(=O)[nH]3)cc2)cn1 [Compound A4, 6-[4-(1-methyl-1H-pyrazol-4-yl)-phenyl]-7H-imidazo[1,5-a]pyrazin-8-one]	5.52 to 6.52	5.52 to 6.52	> 6.52	> 6.52	–	–	–	–
O=c1[nH]c(-c2ccc(CO)cc2)cn2cncc12 [Compound A5, 6-(4-hydroxymethyl-phenyl)-7H-imidazo[1,5-a]pyrazin-8-one]	5.52 to 6.52	5.52 to 6.52	> 6.52	> 6.52	–	–	–	–
Cc1ncc2c(=O)[nH]c(-c3ccc(C(C)(C)C)cc3)cn12 [Compound A7, 6-(4-tert-butyl-phenyl)-3-methyl-7H-imidazo[1,5-a]pyrazin-8-one]	5.52 to 6.52	5.52 to 6.52	> 6.52	> 6.52	–	< 3e-07 M	–	–
Cc1ncc2c(=O)[nH]c(-c3ccc(C(C)(C)O)cc3)cn12 [Compound A8, 6-[4-(1-hydroxy-1-methyl-ethyl)-phenyl]-3-methyl-7H-imidazo[1,5-a]pyrazin-one]	–	–	–	–	–	3e-07 to 3e-06 M	–	–
Oc1nc(-c2ccc(C(F)(F)F)cc2)nc2c1CSCC2 [XAV939]	–	–	–	–	–	–	inhibits growth	blocked

Further lines, with some results ahead:

pIC50 [1]	pIC50 [2]	pIC50 [3]	pIC50 [4]	IC50 [5]	EC50 [6]	Compound	growth of DLD-1-cancer cells [7]	Wnt-stimulated accumulation of β-catenin [8]
> 6.52	5.52 to 6.52	> 6.52	> 6.52	3 to 50 µM	3e-07 to 3e-06 M	CC(C)(C)c1ccc(-c2cn3cncc3c(=O)[nH]2)cc1 [Compound A2, 6-(4-tert-Butyl-phenyl)-7H-imidazo[1,5-a]pyrazin-8-one]	–	–
5.52 to 6.52	5.52 to 6.52	> 6.52	> 6.52	–	–	O=c1[nH]c(-c2ccc(C(F)(F)F)cc2)cn2cncc12 [Compound A3, 6-(4-Trifluoromethyl-phenyl)-7H-imidazo[1,5-a]pyrazin-8-one]	–	–
5.52 to 6.52	5.52 to 6.52	> 6.52	> 6.52	3 to 50 µM	–	CC(C)(O)c1ccc(-c2cn3cncc3c(=O)[nH]2)cc1 [Compound A6, 6-[4-(1-hydroxy-1-methyl-ethyl)-phenyl]-7H-imidazo[1,5-a]pyrazin-8-one]	–	–
